In ChEMBL document CHEMBL1151657, “Flavonoids from the Wood of Salix caprea as Inhibitors of Wood-Destroying Fungi” (1985):

Columns and labels:
Format in all cases: functional
[1] = test system: Trichoderma viride; experiment: Antimicrobial activity against Trichoderma viride after 60 mins by agar diffusion method
[2] = test system: Coniophora puteana; experiment: Antimicrobial activity against Coniophora puteana at 1% concentration after 60 mins by agar diffusion method
[3] = test system: Trichoderma viride; experiment: Antimicrobial activity against Trichoderma viride at 1% concentration after 60 mins by agar diffusion method
[4] = test system: Sporotrichum; experiment: Antimicrobial activity against Sporotrichum pulverulentum at 1% concentration after 60 mins by agar diffusion method
[5] = test system: Coniophora puteana; experiment: Antimicrobial activity against Coniophora puteana at 0.01% concentration after 60 mins by agar diffusion method
[6] = test system: Sporotrichum; experiment: Antimicrobial activity against Sporotrichum pulverulentum at 0.01% concentration after 60 mins by agar diffusion method
[7] = test system: Coniophora puteana; experiment: Antimicrobial activity against Coniophora puteana after 60 mins by agar diffusion method
[8] = test system: Staphylococcus aureus; experiment: Antimicrobial activity against Staphylococcus aureus after 30 mins by agar diffusion method
[9] = test system: Trichophyton mentagrophytes; experiment: Antimicrobial activity against Trichophyton mentagrophytes after 60 mins by agar diffusion method
[10] = test system: Sporotrichum; experiment: Antimicrobial activity against Sporotrichum pulverulentum after 60 mins by agar diffusion method
[11] = test system: Enterococcus faecalis; experiment: Antimicrobial activity against Streptococcus faecalis after 30 mins by agar diffusion method
[12] = test system: Escherichia coli; experiment: Antimicrobial activity against Escherichia coli after 30 mins by agar diffusion method

| SMILES | inhibition zone (IZ) [1] [mm] | inhibition zone (IZ) [7] [mm] | inhibition zone (IZ) [10] [mm] | also measured |
| --- | --- | --- | --- | --- |
| O=C1c2c(O)cc(O)cc2O[C@H](c2ccc(O)c(O)c2)[C@H]1O [(+)-TAXIFOLIN] | 10 |  |  |  |
| O=C1C2CC=CCC2C(=O)N1SC(Cl)(Cl)Cl (stereo unspecified) [CAPTAN] |  |  |  | inhibition zone (IZ) [2]: >25 mm; inhibition zone (IZ) [3]: 15 mm; inhibition zone (IZ) [4]: >25 mm; inhibition zone (IZ) [5]: 10 mm; inhibition zone (IZ) [6]: 15 mm |
| Oc1cc(O)c2c(c1)O[C@H](c1ccc(O)c(O)c1)[C@@H](O)C2 [CIANIDANOL] | 10 |  |  |  |
| COc1ccc(C2Oc3cc(O)cc(O)c3C(=O)C2O)cc1 (stereo unspecified) [DIHYDROKAEMPFERIDE] |  | <10 |  | inhibition zone (IZ) [8]: 8 mm |
| O=C1c2c(O)cc(O)cc2O[C@H](c2ccc(O)cc2)[C@H]1O [DIHYDROKAEMPFEROL] |  | 10 |  |  |
| O=C1C[C@@H](c2ccc(O)cc2)Oc2cc(O)cc(O)c21 [NARINGENIN] | 10 | 10 | 10 | inhibition zone (IZ) [9]: 11 mm; inhibition zone (IZ) [11]: 10 mm; inhibition zone (IZ) [12]: 8 mm; inhibition zone (IZ) [8]: 17.2 mm |
| O=[N+]([O-])c1c(Cl)c(Cl)c(Cl)c(Cl)c1Cl [PENTACHLORONITROBENZENE] | 10 | 10 | <10 |  |
| O=C1C[C@@H](c2ccc(O)cc2)Oc2cc(O[C@@H]3O[C@H](CO)[C@@H](O)[C@H](O)[C@H]3O)cc(O)c21 [PRUNIN] |  |  | 15 |  |
